Reference: PMC4887995, “Small molecule dual-inhibitors of TRPV4 and TRPA1 for attenuation of inflammation and pain” (Scientific Reports, 2016)
“Also recorded” adds a separate entry of the source.

Tests used:
TRPV4 = TRPV4 (Rattus norvegicus, UniProt Q9ERZ8); conditions: for average peak ∆Ca++ concentration: ≈100 cells, vehicle control 1156
Description: We assessed TRPV4-inhibitory potency of these synthetic compounds in a Ca^++ imaging assay in neuronal 2a (N2a) permanent tissue culture cells with directed expression of mammalian (rat) TRPV4. […] For first round assessment, all TRPV4-inhibitory compounds were used at 5 μM (Fig. 2A).
(A) Ca^++ imaging screening of all compounds in N2A cells with directed expression of TRPV4 (rat). […] The number on each bar corresponds to average peak ∆Ca^++ concentrations in ≈100 cells. Inset: micrographs of pseudo-colored cells before and after activation with 5nM GSK101, in addition note the corresponding time course of the averaged Ca^++ signal (fura-2 Ca^++ imaging). […] Plot generated from averaged peak ∆Ca^++ concentration of ≥75 cells per data-point.
TRPV4-eGFP from rat was used, previously found to respond to stimulation with GSK101 and hypotonicity in similar manner as native, non-fused TRPV4.

TRPA1 = TRPA1 (Mus musculus, UniProt Q8BLA8)
Description: Mean±SEM is shown, ≥100 cells per condition. […] Plot generated from averaged peak ∆Ca^++ concentration of ≥75 cells per data-point.
N2a cells were used for directed expression of TRP ion channels as described previously[13]. […] All other channels were native channels from mouse, eGFP was co-transfected. […] Ca^++ imaging was performed as described previously[13][14][34].
To visualize dose-response relationships, Hill plots were conducted using the Igor Pro software program, which derived the plots based on the following equation:

[1] = test system: formalin-evoked trigeminal irritant pain; assay: Trigeminal formalin irritant pain model, WT mice; assay type: in vivo, mouse; conditions: 10 mg/kg i.p., 15 min before 4% formalin, 15–45 min
Description: Figure 7 16-8 and 16-19 effectively attenuate formalin-evoked trigeminal irritant pain. (A) Time-course of nocifensive behavior in WT mice following whisker-pad injection of 4% formalin. The mice were pre-injected (i.p., 10 mg/kg; 15 min before formalin) with GSK205, 16-8 or 16-19. Note effective reduction of nocifensive behavior in the late “neural” phase by compounds 16-8, 16-19, not by GSK205. (B) Cumulative response binned into 3 phases: acute phase (0–5 min), interphase (5–15 min), and late “neural” phase (15–45 min). […] (C) As in (A), but also including Trpv4^−/− mice. Compounds were applied i.p. 15 min before formalin challenge, at 10 mg/kg except established TRPA1 blocker, A967079 (25 mg/kg). Previously-established attenuated nocifensive behavior in early and late phase in Trpv4^−/− mice was recapped, which was reduced further by TRPA1 blocker, A967079. (D) As in (B), plus inclusion of Trpv4^−/− mice. Robust effects of TRPA1-blocker, A967079, were mimicked equi-potently by 16-8 and 16-19 for early phase, and by 16-8 for late phase, partially by 16-19 for late phase. (A,C) show averaged behavioral metrics per time-point, bars in (B,D) represent mean ± SEM; for (D) ^*P < 0.05; ^#P < 0.005, one-way ANOVA; for all panels n = 5–8 mice/group. Implementation of this model was conducted as described previously. Video-taped nocifensive behavior was assessed by investigators blinded to genotype and treatment.

[2] = test system: formalin-evoked trigeminal irritant pain; set-up: method as in PMID 25281928; conditions: intradermal injection; cited from earlier work
[3] = test system: formalin-evoked trigeminal irritant pain (TRPA1 contribution); assay: Trigeminal formalin irritant pain model, Trpv4-/- mice; assay type: in vivo, mouse; conditions: 25 mg/kg i.p.
Description: Figure 7 16-8 and 16-19 effectively attenuate formalin-evoked trigeminal irritant pain. (A) Time-course of nocifensive behavior in WT mice following whisker-pad injection of 4% formalin. The mice were pre-injected (i.p., 10 mg/kg; 15 min before formalin) with GSK205, 16-8 or 16-19. Note effective reduction of nocifensive behavior in the late “neural” phase by compounds 16-8, 16-19, not by GSK205. (B) Cumulative response binned into 3 phases: acute phase (0–5 min), interphase (5–15 min), and late “neural” phase (15–45 min). […] (C) As in (A), but also including Trpv4^−/− mice. Compounds were applied i.p. 15 min before formalin challenge, at 10 mg/kg except established TRPA1 blocker, A967079 (25 mg/kg). Previously-established attenuated nocifensive behavior in early and late phase in Trpv4^−/− mice was recapped, which was reduced further by TRPA1 blocker, A967079. (D) As in (B), plus inclusion of Trpv4^−/− mice. Robust effects of TRPA1-blocker, A967079, were mimicked equi-potently by 16-8 and 16-19 for early phase, and by 16-8 for late phase, partially by 16-19 for late phase. (A,C) show averaged behavioral metrics per time-point, bars in (B,D) represent mean ± SEM; for (D) ^*P < 0.05; ^#P < 0.005, one-way ANOVA; for all panels n = 5–8 mice/group. […] We observed significant residual irritant-pain behavior in all phases of the formalin model in Trpv4^−/− mice, consistent with our previous report[13] (Fig. 7C,D). […] A reference TRPA1-inhibitory compound, A967079, was used at 25 mg/kg body weight as a positive control to inhibit TRPA1, based on a previous report. Reduction of pain behavior in Trpv4^−/− mice was striking, more than 50% in the late neural phase. […] We conclude that compound 16-8 also functions as a potent TRPA1-inhibitor in an in-vivo irritant pain model specifically designed to assess the contribution of TRPA1 to trigeminal irritant pain, and at least as potent as an established reference TRPA1-antagonistic compound. Implementation of this model was conducted as described previously. Video-taped nocifensive behavior was assessed by investigators blinded to genotype and treatment.

Sequence of TRPA1 (Q8BLA8 whole entry): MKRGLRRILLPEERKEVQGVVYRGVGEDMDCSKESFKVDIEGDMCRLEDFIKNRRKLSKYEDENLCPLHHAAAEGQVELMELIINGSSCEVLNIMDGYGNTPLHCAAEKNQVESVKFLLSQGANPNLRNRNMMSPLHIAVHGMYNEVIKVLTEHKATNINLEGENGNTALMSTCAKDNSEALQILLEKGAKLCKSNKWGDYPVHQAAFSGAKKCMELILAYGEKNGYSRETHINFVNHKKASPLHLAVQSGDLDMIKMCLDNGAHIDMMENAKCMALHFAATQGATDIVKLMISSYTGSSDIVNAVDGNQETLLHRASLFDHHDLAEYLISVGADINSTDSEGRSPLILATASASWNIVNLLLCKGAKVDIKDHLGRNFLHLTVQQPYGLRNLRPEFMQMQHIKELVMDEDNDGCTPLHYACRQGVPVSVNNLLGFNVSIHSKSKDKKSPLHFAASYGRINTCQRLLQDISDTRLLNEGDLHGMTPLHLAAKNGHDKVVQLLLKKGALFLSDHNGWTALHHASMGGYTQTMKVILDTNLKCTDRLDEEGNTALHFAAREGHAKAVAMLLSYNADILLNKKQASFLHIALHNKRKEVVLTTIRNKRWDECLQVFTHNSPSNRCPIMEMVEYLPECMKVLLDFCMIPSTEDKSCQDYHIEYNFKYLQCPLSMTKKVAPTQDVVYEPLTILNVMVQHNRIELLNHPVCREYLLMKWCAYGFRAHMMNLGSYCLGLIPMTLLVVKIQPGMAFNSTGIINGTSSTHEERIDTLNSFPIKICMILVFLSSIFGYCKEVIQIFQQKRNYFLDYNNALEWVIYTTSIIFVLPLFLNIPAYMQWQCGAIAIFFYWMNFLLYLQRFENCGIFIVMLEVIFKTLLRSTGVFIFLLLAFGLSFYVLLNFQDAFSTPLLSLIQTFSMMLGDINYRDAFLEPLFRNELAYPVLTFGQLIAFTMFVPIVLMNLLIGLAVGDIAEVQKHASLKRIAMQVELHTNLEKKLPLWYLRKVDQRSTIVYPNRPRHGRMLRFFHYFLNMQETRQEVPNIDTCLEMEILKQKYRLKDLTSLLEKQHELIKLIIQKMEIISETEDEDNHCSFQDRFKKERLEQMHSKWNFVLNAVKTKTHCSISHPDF
Sequence of TRPV4 (Q9ERZ8 whole entry): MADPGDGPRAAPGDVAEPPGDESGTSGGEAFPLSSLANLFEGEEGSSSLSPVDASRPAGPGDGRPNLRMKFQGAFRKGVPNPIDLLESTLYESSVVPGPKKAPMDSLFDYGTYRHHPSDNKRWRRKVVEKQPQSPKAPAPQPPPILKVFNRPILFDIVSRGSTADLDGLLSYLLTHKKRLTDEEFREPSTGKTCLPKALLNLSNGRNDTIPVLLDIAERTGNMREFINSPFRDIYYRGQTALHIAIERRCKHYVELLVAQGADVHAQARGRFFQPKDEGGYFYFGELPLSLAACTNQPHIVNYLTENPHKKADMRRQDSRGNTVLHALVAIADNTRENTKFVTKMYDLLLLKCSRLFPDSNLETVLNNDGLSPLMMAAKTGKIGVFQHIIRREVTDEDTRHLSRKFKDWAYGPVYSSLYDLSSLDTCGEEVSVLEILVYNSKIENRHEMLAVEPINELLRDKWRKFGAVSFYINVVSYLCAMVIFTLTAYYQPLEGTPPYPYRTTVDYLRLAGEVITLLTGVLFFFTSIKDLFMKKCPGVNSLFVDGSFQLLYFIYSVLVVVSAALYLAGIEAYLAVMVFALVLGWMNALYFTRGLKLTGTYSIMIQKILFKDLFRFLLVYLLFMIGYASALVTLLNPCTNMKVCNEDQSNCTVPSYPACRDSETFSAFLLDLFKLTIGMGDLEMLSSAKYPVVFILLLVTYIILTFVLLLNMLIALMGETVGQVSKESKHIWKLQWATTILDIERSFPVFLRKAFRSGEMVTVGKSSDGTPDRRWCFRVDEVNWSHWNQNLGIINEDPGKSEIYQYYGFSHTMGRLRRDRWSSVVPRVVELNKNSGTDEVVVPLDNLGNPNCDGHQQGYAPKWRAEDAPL

CN(CCc1ccc(Nc2ncc(-c3cccnc3)s2)cc1)Cc1ccccc1 [16-43C]
inhibition of TRPV4-mediated Ca++ influx (TRPV4; 5 μM inhibitor, GSK101 5 nM): did not inhibit Ca^++ influx | average peak ∆Ca++ concentration (TRPV4; 5 μM inhibitor, GSK101 5 nM): 1210 nM

CCN(CCc1ccc(Nc2nc(-c3cccnc3)cs2)cc1)Cc1ccccc1 [16-18]
average peak ∆Ca++ concentration (TRPV4; 5 μM inhibitor, GSK101 5 nM): 14 nM | increased potency over GSK205 (TRPV4; from TRPV4 IC50 values): ~5 fold | IC50 (TRPA1): > 25 µM | activity vs TRPA1 (TRPA1; 100 μM mustard oil, N2a cells): no significant activity

CN(CCc1ccc(Nc2nc(-c3cccnc3)cs2)cc1)Cc1ccccc1 [GSK205, reference compound]
pain behavior, delayed (late neural) phase [1]: no significant effect | attenuation of trigeminal formalin-evoked pain behavior [2]: effective attenuation; also recorded: effective previously in a dose-dependent manner | IC50 (TRPV4): 4.19 ± 0.71 µM | average peak ∆Ca++ concentration (TRPV4; 5 μM inhibitor, GSK101 5 nM): 650 nM | IC50 (TRPA1): 5.56 µM

CN(CCc1ccc(Nc2nc(-c3ccncc3)cs2)cc1)Cc1ccccc1 [16-13]
average peak ∆Ca++ concentration (TRPV4; 5 μM inhibitor, GSK101 5 nM): 52 nM

CN(CCc1ccc(Nc2nc(-c3cccnc3)cs2)cc1)CCc1cccnc1 [16-12]
average peak ∆Ca++ concentration (TRPV4; 5 μM inhibitor, GSK101 5 nM): 39.5 nM

CCC(=N\O)/C(C)=C/c1ccc(F)cc1 [A967079, reference compound]
reduction of pain behavior, late neural phase [3]: more than 50%

CN(CCc1ccc(Nc2nc(-c3cccnc3)cs2)cc1)c1ccccc1 [16-16]
average peak ∆Ca++ concentration (TRPV4; 5 μM inhibitor, GSK101 5 nM): 263 nM

CN(CCc1ccc(Nc2nc(-c3ccccn3)cs2)cc1)Cc1ccccc1 [16-14]
average peak ∆Ca++ concentration (TRPV4; 5 μM inhibitor, GSK101 5 nM): 558 nM
